Measured values: PMC5967867, “An NMDAR positive and negative allosteric modulator series share a binding site and are interconverted by methyl groups” (eLife, 2018)
Where two headings read alike, the source gives them in different places.

Legend:
[1] = target: GluN1/GluN2C NMDARs (Rattus norvegicus, UniProt P35439+Q00961); test: Two-electrode voltage-clamp recordings, Xenopus laevis oocytes expressing GluN1/GluN2C; assay type: cell-based; details: saturating glutamate/glycine 100/30 µM; for EC50: mean [95% CI], read-out: EC50 (µM) [conf. int.]; for Emax: mean ± SEM, read-out: Maximal Degree of Modulation (% of control)
Procedure: (§1) cDNAs for rat wild type NMDAR subunits GluN1-1a (GenBank U11418, U08261; hereafter GluN1 or GluN1a), GluN1-1b (U08263, hereafter GluN1b), GluN2A (D13211), GluN2B (U11419), GluN2C (M91563), and GluN2D (L31611, modified as described in [Monyer et al., 1994]) were provided by Drs. S. Heinemann (Salk Institute), S. Nakanishi (Kyoto University), and P. Seeburg (University of Heidelberg). Site-directed mutagenesis was conducted using the QuikChange kit (Agilent Technologies, Santa Clara, CA) following the recommended protocol. DNA sequencing was used to verify all mutations. The amino acid numbering system started with the initiating methionine as residue number one. For expression in Xenopus laevis oocytes, cDNA constructs were linearized by restriction enzymes, and subsequently used to synthesize in vitro cRNAs following the manufacturer’s protocol (mMessage mMachine, Ambion, ThermoFisher Scientific, Waltham, MA).
(§2) Xenopus laevis stage VI oocytes (Ecocyte Biosciences, Austin, TX) were injected as previously described ([Hansen et al., 2013]) 2–7 days prior to recording with cRNA encoding the NMDAR subunits and stored at 15°C in media containing (in mM) 88 NaCl, 2.4 NaHCO3, 1 KCl, 0.33 Ca(NO3)2, 0.41 CaCl2, 0.82 MgSO4, 5 Tris-HCl; pH was adjusted to 7.4 with NaOH and the solution supplemented with 1 U/mL penicillin, 0.1 mg/mL gentamicin sulfate, and 1 μg/mL streptomycin. Two-electrode voltage-clamp recordings were performed at room temperature (21–23°C) using different internal solutions for voltage and current electrodes (0.3 M and 3.0 M KCl, respectively). All extracellular solutions were made from a solution containing (in mM) 90 NaCl, 1 KCl, 10 HEPES, 0.5 BaCl2, 0.01 EDTA (pH 7.4 with NaOH). Experiments were performed using an eight port Modular Valve Positioner (Hamilton Company, Reno, NV) and controlled by custom software (Easy Oocyte, Emory University, Atlanta, GA)to exchange solutions. Oocyte currents were recorded at a holding potential of −40 mV using a two-electrode voltage-clamp amplifier (OC-725B or OC-725C, Warner Instruments, Hamden, CT). […] In MTSEA experiments, fresh MTSEA solutions (0.2 mM) were prepared and utilized in less than 30 min to limit compound degradation.
(§3) Measurements are given as mean ± SEM unless otherwise indicated. The number of replicate experiments used was chosen to ensure a power level of at least 0.80 when α = 0.05 and when detecting appropriate effect sizes. EC50 and IC50 values and confidence intervals reported were calculated by averaging the log(EC50) or log(IC50) value, determining confidence intervals for mean log(EC50) or log(IC50), and converting back to units of molarity. Statistical significance evaluations (α set to 0.05) were performed using a one-way ANOVA with Dunnett’s multiple comparison test, a paired t–test, or other appropriate tests as described.

[2] = target: GluN1/GluN2B NMDARs (Rattus norvegicus, UniProt P35439+Q00960); test: Two-electrode voltage-clamp recordings, Xenopus laevis oocytes expressing GluN1/GluN2B; assay type: cell-based; details: saturating glutamate/glycine 100/30 µM; for EC50: mean [95% CI], - = not fit, response at 30 µM differed by no more than 15% from control, read-out: EC50 (µM) [conf. int.]; for Emax: mean ± SEM, read-out: Maximal Degree of Modulation (% of control)
Procedure: as §1, §2, §3

[3] = target: GluN1/GluN2A NMDARs (Rattus norvegicus, UniProt P35439+Q00959); test: Two-electrode voltage-clamp recordings, Xenopus laevis oocytes expressing GluN1/GluN2A; assay type: cell-based; details: saturating glutamate/glycine 100/30 µM; for EC50: mean [95% CI], - = not fit, response at 30 µM differed by no more than 15% from control, read-out: EC50 (µM) [conf. int.]; for Emax: mean ± SEM, read-out: Maximal Degree of Modulation (% of control)
Procedure: as §1, §2, §3

[4] = target: GluN1/GluN2D NMDARs (Rattus norvegicus, UniProt P35439+Q62645); test: Two-electrode voltage-clamp recordings, Xenopus laevis oocytes expressing GluN1/GluN2D; assay type: cell-based; details: for Emax: mean ± SEM, read-out: Maximal Degree of Modulation (% of control)
Procedure: cDNAs for rat wild type NMDAR subunits GluN1-1a (GenBank U11418, U08261; hereafter GluN1 or GluN1a), GluN1-1b (U08263, hereafter GluN1b), GluN2A (D13211), GluN2B (U11419), Glu[…]), and Glu[…], modified as described in [Monyer et al., 1994]) were provided by Drs. S. Heinemann (Salk Institute), S. Nakanishi (Kyoto University), and P. Seeburg (University of Heidelberg). Site-directed mutagenesis was conducted using the QuikChange kit (Agilent Technologies, Santa Clara, CA) following the recommended protocol. DNA sequencing was used to verify all mutations. The amino acid numbering system started with the initiating methionine as residue number one. For expression in Xenopus laevis oocytes, cDNA constructs were linearized by restriction enzymes, and subsequently used to synthesize in vitro cRNAs following the manufacturer's protocol (mMessage mMachine, Ambion, ThermoFisher Scientific, Waltham, MA). […] All extracellular solutions were made from a solution containing (in mM) 90 NaCl, 1 KCl, 10 HEPES, 0.5 BaCl2, 0.01 EDTA (pH 7.4 with NaOH). Experiments were performed using an eight port Modular Valve Positioner (Hamilton Company, Reno, NV) and controlled by custom software (Easy Oocyte, Emory University, Atlanta, GA)to exchange solutions. Oocyte currents were recorded at a holding potential of -40 mV using a two-electrode voltage-clamp amplifier (OC-725B or OC-725C, Warner Instruments, Hamden, CT). […] Measurements are given as mean ± SEM unless otherwise indicated. […] EC50 and IC50 values and confidence intervals reported were calculated by averaging the log(EC50) or log(IC50) value, determining confidence intervals for mean log(EC50) or log(IC50), and converting back to units of molarity. Statistical significance evaluations (α set to 0.05) were performed using a one-way ANOVA with Dunnett's multiple comparison test, a paired t-test, or other appropriate tests as described.

[5] = system: NMDAR; parameters: method as in Kew et al., 1996; details: ref Kew et al., 1996; cited from earlier work
[6] = saturating glutamate/glycine 100/30 µM, mean [95% CI], read-out: EC50 (µM) [conf. int.]
[7] = saturating glutamate/glycine 100/30 µM

Sequence of GluN1/GluN2A NMDARs (Q00959 23-1464, other chains not shown): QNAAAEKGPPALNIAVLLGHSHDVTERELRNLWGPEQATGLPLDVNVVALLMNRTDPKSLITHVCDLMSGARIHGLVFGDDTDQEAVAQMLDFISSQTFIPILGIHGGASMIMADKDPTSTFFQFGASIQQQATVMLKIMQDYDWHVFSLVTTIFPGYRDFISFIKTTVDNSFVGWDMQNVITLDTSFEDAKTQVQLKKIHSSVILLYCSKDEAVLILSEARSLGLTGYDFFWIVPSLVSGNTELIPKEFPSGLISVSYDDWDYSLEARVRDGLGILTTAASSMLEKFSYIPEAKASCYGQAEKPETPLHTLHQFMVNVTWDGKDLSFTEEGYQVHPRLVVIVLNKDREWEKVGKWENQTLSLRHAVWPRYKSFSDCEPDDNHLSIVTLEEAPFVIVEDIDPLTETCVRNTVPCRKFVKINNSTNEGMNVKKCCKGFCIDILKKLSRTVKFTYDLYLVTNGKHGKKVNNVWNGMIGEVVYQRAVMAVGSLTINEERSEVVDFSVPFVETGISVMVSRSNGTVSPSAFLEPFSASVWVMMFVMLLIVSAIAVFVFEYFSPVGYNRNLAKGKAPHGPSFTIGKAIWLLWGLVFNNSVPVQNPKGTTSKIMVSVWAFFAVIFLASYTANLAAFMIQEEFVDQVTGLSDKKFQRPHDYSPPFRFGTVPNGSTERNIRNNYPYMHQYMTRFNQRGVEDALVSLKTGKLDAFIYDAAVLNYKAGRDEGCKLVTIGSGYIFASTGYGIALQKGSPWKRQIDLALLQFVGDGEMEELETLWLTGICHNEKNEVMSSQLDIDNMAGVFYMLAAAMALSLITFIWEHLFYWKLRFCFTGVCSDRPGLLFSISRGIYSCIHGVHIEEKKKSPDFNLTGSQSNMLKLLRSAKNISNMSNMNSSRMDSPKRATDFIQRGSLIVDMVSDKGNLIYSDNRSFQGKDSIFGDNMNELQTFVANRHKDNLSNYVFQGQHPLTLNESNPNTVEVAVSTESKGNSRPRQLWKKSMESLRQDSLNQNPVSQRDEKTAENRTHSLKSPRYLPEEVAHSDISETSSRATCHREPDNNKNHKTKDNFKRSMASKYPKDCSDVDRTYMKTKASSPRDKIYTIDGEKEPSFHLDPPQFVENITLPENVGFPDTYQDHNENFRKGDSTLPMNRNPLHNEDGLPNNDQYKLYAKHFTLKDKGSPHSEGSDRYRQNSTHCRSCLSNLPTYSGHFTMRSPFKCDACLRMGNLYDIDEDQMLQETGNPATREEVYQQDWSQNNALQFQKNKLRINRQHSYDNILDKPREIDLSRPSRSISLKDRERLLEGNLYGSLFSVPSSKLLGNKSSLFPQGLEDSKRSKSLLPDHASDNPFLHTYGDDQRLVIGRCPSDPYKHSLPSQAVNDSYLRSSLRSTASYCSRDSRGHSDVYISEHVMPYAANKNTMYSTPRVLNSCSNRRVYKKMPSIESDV
Sequence of GluN1/GluN2D NMDARs (Q62645 28-1323, other chains not shown): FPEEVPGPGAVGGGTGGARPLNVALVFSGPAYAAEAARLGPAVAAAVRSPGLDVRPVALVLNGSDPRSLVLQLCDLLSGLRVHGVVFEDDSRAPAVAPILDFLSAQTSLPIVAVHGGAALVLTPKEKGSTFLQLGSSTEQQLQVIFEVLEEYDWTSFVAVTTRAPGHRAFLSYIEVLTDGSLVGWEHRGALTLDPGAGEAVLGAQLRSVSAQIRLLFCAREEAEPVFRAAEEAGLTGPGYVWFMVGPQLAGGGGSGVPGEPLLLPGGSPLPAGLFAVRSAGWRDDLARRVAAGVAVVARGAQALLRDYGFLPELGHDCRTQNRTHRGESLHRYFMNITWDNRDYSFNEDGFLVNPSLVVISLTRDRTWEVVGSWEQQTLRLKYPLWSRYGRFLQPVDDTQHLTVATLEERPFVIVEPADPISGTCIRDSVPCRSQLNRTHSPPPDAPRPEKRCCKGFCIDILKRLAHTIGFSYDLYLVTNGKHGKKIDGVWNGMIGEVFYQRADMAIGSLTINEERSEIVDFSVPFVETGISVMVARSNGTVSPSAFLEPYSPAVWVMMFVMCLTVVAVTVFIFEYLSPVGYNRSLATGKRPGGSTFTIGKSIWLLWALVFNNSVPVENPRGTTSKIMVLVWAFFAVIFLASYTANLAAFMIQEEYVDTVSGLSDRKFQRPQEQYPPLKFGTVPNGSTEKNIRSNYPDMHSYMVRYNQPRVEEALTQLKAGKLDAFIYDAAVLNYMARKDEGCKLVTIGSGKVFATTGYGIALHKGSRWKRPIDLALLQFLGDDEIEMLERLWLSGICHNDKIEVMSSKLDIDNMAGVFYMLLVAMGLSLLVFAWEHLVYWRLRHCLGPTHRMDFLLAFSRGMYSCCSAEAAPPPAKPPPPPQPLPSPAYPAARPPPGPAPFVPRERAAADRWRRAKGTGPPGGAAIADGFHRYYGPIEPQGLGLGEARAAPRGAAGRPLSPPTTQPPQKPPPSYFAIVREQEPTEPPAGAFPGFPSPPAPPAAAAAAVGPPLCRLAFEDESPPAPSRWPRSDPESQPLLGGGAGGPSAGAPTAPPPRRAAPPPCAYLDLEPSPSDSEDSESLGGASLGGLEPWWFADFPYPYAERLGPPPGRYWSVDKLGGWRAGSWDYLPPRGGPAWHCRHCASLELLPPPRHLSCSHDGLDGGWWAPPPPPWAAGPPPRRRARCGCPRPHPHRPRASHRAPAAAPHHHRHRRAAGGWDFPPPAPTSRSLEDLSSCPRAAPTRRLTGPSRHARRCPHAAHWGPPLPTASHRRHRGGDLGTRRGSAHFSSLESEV
Sequence of GluN1/GluN2C NMDARs (Q00961 20-1237, other chains not shown): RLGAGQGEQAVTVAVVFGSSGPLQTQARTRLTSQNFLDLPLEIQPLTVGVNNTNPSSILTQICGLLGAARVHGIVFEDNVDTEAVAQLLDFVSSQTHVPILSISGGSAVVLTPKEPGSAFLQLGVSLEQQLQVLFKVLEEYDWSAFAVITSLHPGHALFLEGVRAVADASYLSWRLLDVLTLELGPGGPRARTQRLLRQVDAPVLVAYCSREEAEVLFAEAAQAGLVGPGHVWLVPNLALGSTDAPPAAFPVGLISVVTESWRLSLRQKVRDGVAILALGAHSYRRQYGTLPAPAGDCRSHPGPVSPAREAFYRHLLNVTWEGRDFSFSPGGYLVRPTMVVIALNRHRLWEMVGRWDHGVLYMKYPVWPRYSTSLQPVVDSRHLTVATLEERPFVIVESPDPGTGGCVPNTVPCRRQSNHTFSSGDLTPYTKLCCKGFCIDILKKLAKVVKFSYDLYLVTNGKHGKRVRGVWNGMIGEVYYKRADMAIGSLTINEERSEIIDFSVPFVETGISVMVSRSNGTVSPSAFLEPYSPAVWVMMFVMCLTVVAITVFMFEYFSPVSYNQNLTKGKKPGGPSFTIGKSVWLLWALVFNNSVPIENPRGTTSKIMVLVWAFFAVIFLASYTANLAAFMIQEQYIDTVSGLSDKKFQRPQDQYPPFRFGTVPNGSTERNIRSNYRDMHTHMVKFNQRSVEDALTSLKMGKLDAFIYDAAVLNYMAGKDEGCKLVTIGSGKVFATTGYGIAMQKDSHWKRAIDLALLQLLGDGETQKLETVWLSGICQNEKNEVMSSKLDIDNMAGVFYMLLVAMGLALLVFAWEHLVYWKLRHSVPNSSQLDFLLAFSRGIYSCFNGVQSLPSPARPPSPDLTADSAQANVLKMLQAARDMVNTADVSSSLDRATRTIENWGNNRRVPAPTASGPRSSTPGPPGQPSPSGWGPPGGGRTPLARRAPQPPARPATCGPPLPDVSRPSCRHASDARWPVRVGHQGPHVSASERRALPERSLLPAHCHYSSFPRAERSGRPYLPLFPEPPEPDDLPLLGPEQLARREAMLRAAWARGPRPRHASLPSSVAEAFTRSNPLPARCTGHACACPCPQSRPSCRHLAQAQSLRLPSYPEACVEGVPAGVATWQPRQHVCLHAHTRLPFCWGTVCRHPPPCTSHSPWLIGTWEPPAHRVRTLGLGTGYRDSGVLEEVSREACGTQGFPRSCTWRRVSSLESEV

Compound | melting point | EC50 [1] [µM] | Emax [1] [%] | EC50 [2] [µM] | Emax [2] [%] | EC50 [3] [µM] | Emax [3] [%] | EC50 [4, 6] [µM] | Emax [4, 7] [%] | EC50 ([4]; read-out: Control Glutamate EC50 (µM) [conf. int.], glutamate EC50 in 30 µM glycine, absence of EU1794-27) [µM] | residual current at saturating levels [5]
CC(C)OC(=O)c1c(NC(=O)CC2SC(=N)NC2=O)sc2c1CCCC2 (stereo not shown) [EU1794-5, isopropyl 2-(2-(2-imino-4-oxothiazolidin-5-yl)acetamido)-4,5,6,7-tetrahydrobenzo[b]thiophene-3-carboxylate] | 152 to 154 °C | 4 | 140 | 2.5 | 71 | 18 | 36 | 9.3 | – | – | –
CC1CCc2c(sc(NC(=O)CC3SC(=N)NC3=O)c2C(=O)OC(C)C)C1 (stereo not shown) [EU1794-19, isopropyl 2-(2-(2-imino-4-oxothiazolidin-5-yl)acetamido)-6-methyl-4,5,6,7-tetrahydrobenzo[b]thiophene-3-carboxylate] | 229 °C (dec.) | 0.74 | 32 | 1.1 | 43 | 1.1 | 19 | 0.43 | 46 | – | –
N=C1NC(=O)C(CC(=O)Nc2sc3c(c2C(=O)OCc2ccccc2)CCCC3)S1 (stereo not shown) [EU1794-25, benzyl 2-(2-(2-imino-4-oxothiazolidin-5-yl)acetamido)-4,5,6,7-tetrahydrobenzo[b]thiophene-3-carboxylate] | – | 0.77 | 180 | 1 | 220 | > 30 | – | 1 | 250 | – | –
CCCCOC(=O)c1c(NC(=O)CC2SC(=N)NC2=O)sc2c1CCCC2 (stereo not shown) [EU1794-29, butyl 2-(2-(2-imino-4-oxothiazolidin-5-yl)acetamido)-4,5,6,7-tetrahydrobenzo[b]thiophene-3-carboxylate] | – | 3.8 | 130 | 1.4 | 140 | 3.7 | 59 | 5.7 | 166 | – | –
N[C@@H](CCC(=O)O)C(=O)O [Glutamate, reference compound] | – | – | – | – | – | – | – | – | – | 0.21 | –
CC(C(O)c1ccc(O)cc1)N1CCC(Cc2ccccc2)CC1 (stereo not shown) [ifenprodil] | – | – | – | – | – | – | – | – | – | – | ~ 10%
